Mortality and pest or weed control data for nine compounds are collected here from patent publication US4791139A, “Diphenyl ether derivatives and their use as insecticides” (Imperial Chemical Industries PLC, priority 1986, dated 1988).

Bounds are passed on as bounds.

Format in all cases: in vivo
Assay [1] has as its system Meloidogyne incognita (Tomato root knot eelworm - larvae). The assay can be described thus: Residual test, Tomato root knot eelworm - larvae (MI), Semi in-vitro. The settings on record: 168 h, application rate is half that recorded, 7 days, read-out: MI grading of mortality; for mortality at 125 µg/mL: rate 250 ppm; for mortality at 250 µg/mL: rate column 500 ppm.
Assay [2] relates to Musca domestica (houseflies - adults). The assay can be described thus: Knockdown test, houseflies - adults (MD/KD), Cotton wool/sugar. The following applies: 4 hours, read-out: MD/KD grading of knockdown. How it is done: (§1) The activity of the Product was determined using a variety of insect pests. The Product was used in the form of liquid preparations containing from 100 to 500 parts per million (ppm) by weight of the Product. The preparations were made by dissolving the Product in acetone and diluting the solutions with water containing 0.1% by weight of a wetting agent sold under the trade name "SYNPERONIC" NX until the liquid preparations contained the required concentration of the Product. "SYNPERONIC" is a Registered Trade Mark.
(§2) The test procedure adopted with regard to each pest was basically the same and comprised supporting a number of the pests on a medium which was usually a host plant or a foodstuff on which the pests feed, and treating either or both the pests and the medium with the preparations. The mortality of the pests was then assessed at periods usually varying from one to seven days after the treatment.
In the case of the species Musca domestica (housefly), an additional assessment to determine the knockdown effect of the compounds was performed.
(§3) In Table III the pest organism used is designated by a letter code and the pests species, the support medium or food, and the type and duration of test is given in Table II.

A further assay relates to Myzus persicae (aphids). Nature of the assay: Contact test, aphids (MP), Chinese Cabbage leaf. The following applies: 72 h, 3 days, read-out: MP grading of mortality. How it is done: The activity of the Product was determined using a variety of insect pests. The Product was used in the form of liquid preparations containing from 100 to 500 parts per million (ppm) by weight of the Product. The preparations were made by dissolving the Product in acetone and diluting the solutions with water containing 0.1% by weight of a wetting agent sold under the trade name "SYNPERONIC" NX until the liquid preparations contained the required concentration of the Product. "SYNPERONIC" is a Registered Trade Mark. The test procedure adopted with regard to each pest was basically the same and comprised supporting a number of the pests on a medium which was usually a host plant or a foodstuff on which the pests feed, and treating either or both the pests and the medium with the preparations. The mortality of the pests was then assessed at periods usually varying from one to seven days after the treatment. […] In Table III the pest organism used is designated by a letter code and the pests species, the support medium or food, and the type and duration of test is given in Table II.

Assay [3] relates to Heliothis virescens (tobacco budworm - larvae). The assay can be described thus: Residual test, tobacco budworm - larvae (HV), Cotton leaf. The following applies: 72 h, read-out: HV grading of mortality. How it is done: as §1, §2
(§4) The results of the tests are given in Table III for each of the Products, at the rate in parts per million given in the second column as a grading of mortality designated as A, B or C wherein A indicates 80-100% mortality or knockdown (70-100% for Meloidogyne incognita), B indicates 50-79% mortality knockdown or knockdown (50-69% for Meloidogyne incognita) and C indicates less than 50% mortality or knockdown.
as §3
(tobacco budworm - larvae)

The test system of assay [4] is Nilaparvata lugens (brown plant hopper - nymphs). Nature of the assay: Contact test, brown plant hopper - nymphs (NL), Rice plant. The following applies: 72 h, 3 days, read-out: NL grading of mortality. How it is done: (§5) The activity of the Product was determined using a variety of insect pests. The Product was used in the form of liquid preparations containing from 100 to 500 parts per million (ppm) by weight of the Product. The preparations were made by dissolving the Product in acetone and diluting the solutions with water containing 0.1% by weight of a wetting agent sold under the trade name "SYNPERONIC" NX until the liquid preparations contained the required concentration of the Product. "SYNPERONIC" is a Registered Trade Mark. The test procedure adopted with regard to each pest was basically the same and comprised supporting a number of the pests on a medium which was usually a host plant or a foodstuff on which the pests feed, and treating either or both the pests and the medium with the preparations. The mortality of the pests was then assessed at periods usually varying from one to seven days after the treatment.

The test system of assay [5] is Diabrotica balteata (rootworm larvae). Nature of the assay: Residual test, rootworm larvae (DB), Filter paper/maize seed. The following applies: 72 h, 3 days, read-out: DB grading of mortality. How it is done:
as §5

For assay [6], the system named is Spodoptera exigua (lesser army worm - larvae). Nature of the assay: Residual test, lesser army worm - larvae (SP), Cotton leaf. The following applies: 72 h, 3 days, read-out: SP grading of mortality. How it is done: as §1, §2, §4, §3
(lesser army worm - larvae)

Assay [7] relates to Tetranychus urticae (spider mites - adult). The assay can be described thus: Contact test, spider mites - adult (TUa), French bean leaf. The following applies: 72 h, 3 days, read-out: TUA grading of mortality. How it is done: as §5
Assay [8] concerns Blattella germanica (cockroach nymphs). Nature of the assay: Residual test, cockroach nymphs (BG), Plastic pot. The settings on record: 72 h, 3 days, read-out: BG grading of mortality. How it is done:
as §5

The test system of assay [9] is Tetranychus urticae (spider mites - ova). The assay can be described thus: Contact test, spider mites - ova (TUe), French bean leaf. The settings on record: 144 h, 6 days, read-out: TUE grading of mortality. How it is done:
as §5

Assay [10] concerns Musca domestica (houseflies - adults). The assay can be described thus: Contact test, houseflies - adults (MD), Cotton wool/sugar. The following applies: 24 h, 1 day, read-out: MD grading of mortality. How it is done:
as §5

`FC(F)(F)Oc1ccc(C(F)(CCCc2cccc(Oc3ccccc3)c2)C(F)(F)F)cc1` (racemic) [Compound 60, 1,1,1,2-tetrafluoro-2-(4-trifluoromethoxyphenyl)-5-(3-phenoxyphenyl)pentane]: the mortality (commonly the percentage killed) at 125 µg/mL in assay [1] was below 50%. Besides, the pest or weed control at 250 ppm in assay [2] fell in the range of 80 to 100%. The mortality at 250 ppm (in the assay on Myzus persicae (aphids); in assay [3]; in [4]; in assay [5]; in assay [6]; in [7]) was 80 to 100% in each case. Moreover, the mortality at 250 ppm in assay [8], in assay [9] and in assay [10] was 80 to 100% throughout.

On to `COc1ccc(C(=CCCc2cccc(Oc3ccccc3)c2)C(F)(F)F)cc1` [Compound 46, 1,1,1-Trifluoro-2-(4-methoxyphenyl)-5-(3-phenoxyphenyl)pent-2-ene], for which, in assay [1], the mortality at 250 µg/mL is below 50%. Also, the pest or weed control at 500 ppm in [2] is below 50%. Moreover, the mortality at 500 ppm in the assay with Myzus persicae (aphids) was below 50%; in assay [3], 80 to 100%; in assay [4], below 50%; in assay [5], below 50%; in assay [6], below 50%; in assay [7] it was below 50%. Besides, the mortality at 500 ppm in assay [8], in assay [9] and in assay [10] was below 50% throughout.

As to `FC(F)(F)C(CCCc1cccc(Oc2ccccc2)c1)c1ccc2c(c1)CCC2` (racemic) [Compound 52, 1,1,1-Trifluoro-2-(5-indanyl)-5-(3-phenoxyphenyl)pentane], the mortality at 125 µg/mL in assay [1] was below 50%. Moreover, in assay [2], the pest or weed control at 250 ppm is below 50%. Further, the mortality at 250 ppm in the assay with Myzus persicae (aphids) is 50 to 79%; in assay [3] it was 80 to 100%; in assay [4] it was 80 to 100%; in [5], below 50%; in [6], 80 to 100%; in assay [7], 80 to 100%. Besides, the values for the mortality at 250 ppm in [8], in [9] and in assay [10] were 80 to 100%, below 50% and 50 to 79%, respectively.

As for `CC1Oc2ccc(C(CCCc3cccc(Oc4ccccc4)c3)C(F)(F)F)cc2O1` (stereo not drawn) [Compound 61, 1,1,1-Trifluoro-2-[3,4-(methylmethylenedioxy)-phenyl]-5-(3-phenoxyphenyl)pentane], the mortality at 250 µg/mL in assay [1] is below 50%. Besides, the pest or weed control at 500 ppm in assay [2] lay in the range of 80 to 100%. The mortality at 500 ppm in the assay with Myzus persicae (aphids) was 80 to 100%; in assay [3] it was 80 to 100%; in [4] it was 80 to 100%; in assay [5] it was 80 to 100%; in assay [6], 80 to 100%; in assay [7], below 50%. The mortality at 500 ppm is 80 to 100% in assay [8], below 50% in [9] and 80 to 100% in assay [10].

As to `Fc1ccc(CCCC(c2ccc(OC(F)(F)F)cc2)C(F)F)cc1Oc1ccccc1` (racemic) [Compound 27, 1,1-Difluoro-2-(4-trifluoromethoxyphenyl)-5-(4-fluoro-3-phenoxyphenyl)pentane], the mortality at 250 µg/mL in assay [1] was below 50%. The pest or weed control at 500 ppm in assay [2] lay within 80 to 100%. Further, the mortality at 500 ppm (with Myzus persicae (aphids); in [3]; in [4]; in [5]; in assay [6]; in [7]) was 80 to 100% throughout. Further, the mortality at 500 ppm in [8] was 80 to 100%; in assay [9], below 50%; in [10] it was 80 to 100%.

Regarding `CCOc1ccc(C(CCCc2cccc(Oc3ccccc3)c2)C(F)F)cc1` (racemic) [Compound 66, 1,1-Difluoro-2-(4-ethoxyphenyl)-5-(3-phenoxyphenyl)pentane], in assay [1], the mortality at 250 µg/mL is below 50%. Further, the pest or weed control at 500 ppm in assay [2] was below 50%. In addition, the mortality at 500 ppm in the assay on Myzus persicae (aphids) is 80 to 100%; in [3] it was 80 to 100%; in [4], 80 to 100%; in assay [5], 80 to 100%; in assay [6], 80 to 100%; in assay [7], below 50%. Moreover, the results for the mortality at 500 ppm in assay [8], in [9] and in assay [10] were 80 to 100%, below 50% and 80 to 100%, respectively.

Take `Fc1ccc(C(=CCCc2cccc(Oc3ccccc3)c2)C(F)(F)F)cc1` [Compound 47, 1,1,1-Trifluoro-2-(4-fluorophenyl)-5-(3-phenoxyphenyl)pent-2-ene]: the mortality at 125 µg/mL in assay [1] fell in the range of 50 to 69%. In addition, the pest or weed control at 250 ppm in assay [2] was below 50%. The mortality at 250 ppm was below 50% with Myzus persicae (aphids); below 50% in assay [3]; below 50% in assay [4]; 50 to 79% in assay [5]; 50 to 79% in assay [6]; below 50% in [7]. The mortality at 250 ppm in assay [8] is 50 to 79%; in assay [9], below 50%; in assay [10] it was below 50%.

Take `CCOc1c(F)cc(C(CCCc2ccc(F)c(Oc3ccccc3)c2)C(F)(F)F)cc1F` (racemic) [Compound 64, 1,1,1-Trifluoro-2-(3,5-difluoro-4-ethoxyphenyl)-5-(4-fluoro-3-phenoxyphenyl)pentane]: the mortality at 250 µg/mL in [1] is below 50%. Besides, the pest or weed control at 500 ppm in assay [2] fell in the range of 80 to 100%. Also, the mortality at 500 ppm with Myzus persicae (aphids) was in the range of 80 to 100%; in [3] it was 80 to 100%; in assay [4] it was 80 to 100%; in assay [5], 50 to 79%; in assay [6], 80 to 100%; in assay [7] it was 80 to 100%. The mortality at 500 ppm in assay [8], in [9] and in assay [10] was 80 to 100% each time.

On to `CCOc1ccc(C(CCC(C)c2cccc(Oc3ccccc3)c2)C(F)(F)F)cc1` (racemic) [Compound 55, 1,1,1-Trifluoro-2-(4-ethoxyphenyl)-5-(3-phenoxyphenyl)hexane], for which the mortality at 250 µg/mL in assay [1] was below 50%. For the same compound, in assay [2], the pest or weed control at 500 ppm fell in the range of 80 to 100%. Besides, the mortality at 500 ppm with Myzus persicae (aphids) is 80 to 100%; in [3], 80 to 100%; in assay [4], 80 to 100%; in assay [5], 50 to 79%; in assay [6], 80 to 100%; in assay [7] it was below 50%. The mortality at 500 ppm in assay [8] was 80 to 100%; in assay [9], below 50%; in assay [10], 80 to 100%.
